Laboratory results taken from patent publication US11180486B2, “Indolylkojyl methane analogues, process of preparation thereof and use as inhibitor of cancer cells invasion and metastasis” (Council of Scientific & Industrial Research, priority 2017, dated 2021).

Assay: Pharmacokinetic study, intravenous
Format: in vivo
Conditions: mouse, plasma, male Balb/c mice, i.v. 2.5 mg/kg b.w. single dose
Description: Pharmacokinetic (PK) Study. Healthy male Balb/c mice (25-30 grams each) were taken to access the PK profile of 5. There were 11 time points for blood collection and 6 animals were there in each sampling time point for maintaining accuracy of the experiment. Animals were administered with 5, intravenously (2.5 mg/kg, b.w.) and control mice were administered with normal saline. A minimum of 100 μL of plasma was collected from each animal at different time points, viz: (0.083, 0.25, 0.5, 1, 2, 4, 6, 8, 12, 16 and 24 h) after dosing with 5 and then acetonitrile (ACN) 400 μL was added to it to precipitate the plasma proteins. The compound was extracted into the solvent, filtered and analyzed by a 6410B Triple quadrupole LC-MS/MS system (Agilent Technologies, USA). Quantification was performed through multiple reaction monitoring (MRM) separately for all the six samples collected individually at each time point by comparing with the standard calibration curve prepared using Agilent Mass Hunter software (version B.04.00). Various PK parameters like; half life (t1/2) (h), C initial C0 (ng/ml), area under the curve AUC(0-∞) (ng*h/ml), Vd (L/kg), Cl (L/h/kg) and Mean Residence Time (h) were calculated using non-compartmental pharmacokinetic data analysis. […] The pharmacokinetic parameters of compound 5 further provide evidence that the molecule has its very good absorption and biodistribution capability through i.v. route of administration.

CCCCCCCC(c1oc(CO)cc(=O)c1O)c1c[nH]c2ccccc12 (stereo not shown) [Compound 5, 2-{1-(1H-indol-3-yl)octyl}-3-hydroxy-6-(hydroxymethyl)-4H-pyran-4-one]
AUC(0-t) (read-out: Area under curve (AUC0-t)): 395 ng·h/mL
AUC(0-inf) (read-out: Area under curve (AUC0-∞)): 406 ng·h/mL
C0 (read-out: C initial (C0)): 1220 ng/mL
clearance (read-out: Clearance (Cl) (converted)): 205 mL/min/kg
half-life (read-out: Half life (t1/2) (converted)): 25.8 min
MRT (read-out: Mean residence time (MRT)): 27 min
Vd (read-out: Volume of distribution (Vd)): 7.61 L/kg
